Reference: ChEMBL document CHEMBL3046754, “New brassinosteroid analogs having nitrogenated functionalities at C3 to provide more information about the brassinosteroidreceptor interaction” (2004)

Legend:
Assay type in all cases: functional
Oryza sativa [1] = assay: Growth regulating activity in Oryza sativa (rice) Bahia cultivar seedlings assessed as interior angle between leaf lamina of second leaf and its leaf sheath at 1 ug/plant applied onto second lamina joint of plant sheath measured after 2 days by Oryza sativa lamina inclination test
Oryza sativa [2] = assay: Growth regulating activity in Oryza sativa (rice) Bahia cultivar seedlings assessed as interior angle between leaf lamina of second leaf and its leaf sheath at 0.1 ug/plant applied onto second lamina joint of plant sheath measured after 2 days by Oryza sativa lamina inclination test
Oryza sativa [3] = assay: Growth regulating activity in Oryza sativa (rice) Bahia cultivar seedlings assessed as interior angle between leaf lamina of second leaf and its leaf sheath at 0.5 ug/plant applied onto second lamina joint of plant sheath measured after 2 days by Oryza sativa lamina inclination test
Oryza sativa [4] = assay: Growth regulating activity in Oryza sativa (rice) Bahia cultivar seedlings assessed as interior angle between leaf lamina of second leaf and its leaf sheath at 0.01 ug/plant applied onto second lamina joint of plant sheath measured after 2 days by Oryza sativa lamina inclination test
Oryza sativa [5] = assay: Growth regulating activity in Oryza sativa (rice) Bahia cultivar seedlings assessed as interior angle between leaf lamina of second leaf and its leaf sheath at 0.05 ug/plant applied onto second lamina joint of plant sheath measured after 2 days by Oryza sativa lamina inclination test
Oryza sativa [6] = assay: Growth regulating activity in Oryza sativa (rice) Bahia cultivar seedlings assessed as interior angle between leaf lamina of second leaf and its leaf sheath at 0.02 ug/plant applied onto second lamina joint of plant sheath measured after 2 days by Oryza sativa lamina inclination test

| SMILES | Activity (Oryza sativa [1]) [degree] | Activity (Oryza sativa [2]) [degree] | Activity (Oryza sativa [3]) [degree] | Activity (Oryza sativa [4]) [degree] | Activity (Oryza sativa [5]) [degree] | Activity (Oryza sativa [6]) [degree] |
| --- | --- | --- | --- | --- | --- | --- |
| CC[C@@H](C(C)C)[C@H](O)[C@@H](O)[C@@H](C)[C@H]1CC[C@H]2[C@@H]3CC(=O)[C@H]4C[C@H](N=[N+]=[N-])CC[C@]4(C)[C@H]3CC[C@]12C | 1 |  |  |  |  |  |
| CC[C@@H](C(C)C)[C@@H](O)[C@H](O)[C@@H](C)[C@H]1CC[C@H]2[C@@H]3COC(=O)[C@H]4C[C@H](N)CC[C@]4(C)[C@H]3CC[C@]12C | 55 | 16 | 31 |  |  |  |
| CC[C@@H](C(C)C)[C@H](O)[C@@H](O)[C@@H](C)[C@H]1CC[C@H]2[C@@H]3COC(=O)[C@H]4C[C@H](N=[N+]=[N-])CC[C@]4(C)[C@H]3CC[C@]12C | 48 |  | 17 |  |  |  |
| CC[C@@H](C(C)C)[C@@H](O)[C@H](O)[C@@H](C)[C@H]1CC[C@H]2[C@@H]3CC(=O)[C@H]4C[C@H](O)CC[C@]4(C)[C@H]3CC[C@]12C | 85 | 59 | 76 | 46 | 65 |  |
| CC[C@@H](C(C)C)[C@@H](O)[C@H](O)[C@@H](C)[C@H]1CC[C@H]2[C@@H]3CC(=O)[C@H]4C[C@H](N)CC[C@]4(C)[C@H]3CC[C@]12C | 23 |  |  |  |  |  |
| CC[C@@H](C(C)C)[C@H](O)[C@@H](O)[C@@H](C)[C@H]1CC[C@H]2[C@@H]3CC(=O)[C@H]4C[C@H](N)CC[C@]4(C)[C@H]3CC[C@]12C | 3 |  |  |  |  |  |
| CC[C@@H](C(C)C)[C@H](O)[C@@H](O)[C@@H](C)[C@H]1CC[C@H]2[C@@H]3COC(=O)[C@H]4C[C@H](N)CC[C@]4(C)[C@H]3CC[C@]12C | 5 |  |  |  |  |  |
| CC[C@@H](C(C)C)[C@@H](O)[C@H](O)[C@@H](C)[C@H]1CC[C@H]2[C@@H]3CC(=O)[C@H]4C[C@H](N=[N+]=[N-])CC[C@]4(C)[C@H]3CC[C@]12C | 75 | 30 | 64 | 17 | 24 |  |
| CC[C@@H](C(C)C)[C@@H](O)[C@H](O)[C@@H](C)[C@H]1CC[C@H]2[C@@H]3COC(=O)[C@H]4C[C@H](N=[N+]=[N-])CC[C@]4(C)[C@H]3CC[C@]12C | 106 | 86 | 94 | 37 | 74 | 44 |
